These results are taken from patent publication US9605013B2, “Derivatives of hemin with antibacterial and antiviral activity” (OBSCHESTVO S OGRANICHENNOI OTVETSTVENNOSTIYU …, priority 2011, dated 2017).

Type in all cases: cell-based
The subject of test [1] is Enterococcus faecalis No. 559. As to the kind of experiment: Antibacterial specific activity, twofold dilutions, visual growth evaluation. Particulars: E. faecalis 559; 36° C., 24 hours. A digest of the protocol: (§1)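 MIC = last dilution preventing visible growth after 24 h at 36° C., judged against compound-free wells. Inoculum 5×10^5 CFU/ml; compounds serially diluted twofold from water stock ([…]) or DMSO stock ([…]).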

The test system of test [2] is Staphylococcus aureus No. 100 KC. The test is described as above. As to conditions: S. aureus 100 KC; 36° C., 24 hours. In a few lines:
as §1

For test [3], the system named is Herpes Simplex Virus type 1 strain EC. Nature of the test: Antiviral activity, virus cytopathogenic action in Vero cells. Further details: key: 0: CPA (cytopathogenic action) is not detected; 1: up to 25% virus-infected monolayer; from 25% to 50%; 3: from 50% to 75%; 4: from 75% to 100%. Particulars: 48 hours.
The mark [4] stands for this setting: HSV-1, virus dose 1, concentration 0.1 μM.
Setting [5] is: HSV-1, virus dose 1, concentration 1 μM.
The mark [6] stands for this setting: HSV-1, virus dose 1, concentration 10 μM.
Setting [7] is: HSV-1, virus dose 10, concentration 0.1 μM.
Setting [8] is: HSV-1, virus dose 10, concentration 1 μM.
[9] abbreviates: HSV-1, virus dose 10, concentration 10 μM.
[10] abbreviates: HSV-1, virus dose 100, concentration 0.1 μM.
Setting [11] is: HSV-1, virus dose 100, concentration 1 μM.
Where [12] appears, read: HSV-1, virus dose 100, concentration 10 μM.

Bounds are passed on as bounds.

The MIC is the least concentration at which growth counts as inhibited. As to “6,7-bis-(Amide N^α-Glycyl)-Protohemin (IX) [IV]”, the MIC in test [1] and in test [2] was 0.39 µM each time. Further, the “manifestation of the virus CPA” value in test [3] (setting [4]) is 1 (up to 25% virus-infected monolayer); in test [3] (setting [5]) it was 1 (up to 25% virus-infected monolayer); in test [3] (setting [6]), 0^1; in test [3] (setting [7]), 2 (from 25% to 50%); in test [3] (setting [8]), 2 (from 25% to 50%); in test [3] (setting [9]), 0^1. Besides, the “manifestation of the virus CPA” value in test [3] (setting [10]) is recorded as 3 (from 50% to 75%); in test [3] (setting [11]) it was 3 (from 50% to 75%); in test [3] (setting [12]) it was 2^1 (from 25% to 50%).
As to “6,7-bis-[(Diamide N^α-L-Arginyl)-L-glutamyl]-Protohemin (IX)”, the MIC was 3.12 µM in test [1] and 0.78 µM in test [2].
For `C=CC1=C(C)c2cc3[n-]c(cc4[n-]c(cc5nc(cc1n2)C(C)=C5C=C)c(C)c4CCC(=O)N[C@@H](CCCNC(=N)N)C(N)=O)c(CCC(=O)N[C@@H](CCCNC(=N)N)C(N)=O)c3C.[Cl-].[Fe+3]` [II, 6,7-bis-(Amide N^α-Arginyl)-Protohemin (IX)], in that order: 1.3 µM and 2.6 µM.
For `C=CC1=C(C)c2cc3[n-]c(cc4[n-]c(cc5nc(cc1n2)C(C)=C5C=C)c(C)c4CCC(=O)N[C@@H](CO)C(N)=O)c(CCC(=O)N[C@@H](CO)C(N)=O)c3C.[Cl-].[Fe+3]` [V, 6,7-bis-(Amide N^α-Seryl)-Protohemin (IX)] the same measures were 25 µM and 0.52 µM.
As to `C=CC1=C(C)c2cc3[n-]c(cc4[n-]c(cc5nc(cc1n2)C(C)=C5C=C)c(C)c4CCC(=O)N[C@@H](CO)C(=O)O)c(CCC(=O)N[C@@H](CO)C(=O)O)c3C.[Cl-].[Fe+3]` [VI, 6,7-bis-(N^α-Seryl]-Protohemin (IX)], the results for the minimal inhibitory concentration (MIC) in test [1] and in test [2] were over 50.0 µM and 5.21 µM, respectively. Moreover, the “manifestation of the virus CPA” value in test [3] (setting [4]) is recorded as 0^1; in test [3] (setting [5]), 0^1; in test [3] (setting [6]), 0^1; in test [3] (setting [7]) it was 2 (from 25% to 50%); in test [3] (setting [8]), 2 (from 25% to 50%); in test [3] (setting [9]) it was 2^ (from 25% to 50%). For the same molecule, the “manifestation of the virus CPA” value in test [3] (setting [10]) is on record as 3 (from 50% to 75%); in test [3] (setting [11]), 3.3 scores; in test [3] (setting [12]), 3 (from 50% to 75%).
